Measurements from paper PMC12040169 (PLOS Biology, 2025).

Assay: in vitro
Settings: human, hela cells, % viability

| SMILES | viability at 28.5 h, 10 µM [%] |
| --- | --- |
| FC(F)(F)c1ccc(OCCOc2ccccc2)nc1 [CBK115829] | 80.4 |
| O=C(O)c1ccc(/C=N/Nc2cccc3cccnc23)cc1 [CBK262372] | 74.4 |
| CCC1(C)Cc2sc3[nH]c(=O)c(SCC(N)=O)nc3c2CO1 (centres unmarked) [CBK020581] | 87.3 |
| CSCCOc1cc(N2CCCC2)ncn1 [CBK115900] | 90 |
| CC(=O)Nc1ccc(C(=O)N(Cc2ccccn2)CC2CCCO2)cn1 (centres unmarked) [CBK306784] | 83.7 |
| O=P(O)(CNCc1ccccc1)CNCc1ccccc1 [CBK261604C] | 118 |
| CCN(CC)CCCOC(=O)C(CCSC)c1ccccc1C (centres unmarked) [CBK023177C] | 91.7 |
| CC(=O)SCCC(=O)N1C(C)CCCC1C(=O)O (centres unmarked) [CBK261315] | 93.1 |
| CCCc1ccc(S(=O)(=O)Nc2cccc(C(=O)N3CCN(C)CC3)c2)cc1 [CBK039034] | 122 |
| CSc1nc(NC(=O)c2ccccc2)cc(N2CCNCC2)n1 [CBK050266T] | 93.6 |
| NC(=O)N/N=C/COc1cccc(C(F)(F)F)c1 [CBK022736] | 102 |
| FC(F)(F)c1cccc(OCCCc2ccncc2)n1 [CBK115795] | 98.8 |
| O=C(O)C1CCN(C(=O)[C@@H]2Cc3ccccc3CN2)CC1 [CBK286638] | 91 |
| CC1CCc2nn(CCNC(=O)c3cccs3)c(=O)cc2C1 (centres unmarked) [CBK284483] | 97.4 |
| Cc1cccc(C)c1OCc1nnc(SCc2ccc([N+](=O)[O-])cc2)n1C [CBK269737] | 105 |
| CCOC(=O)Cn1[nH]c(CO)c(Cc2c(Cl)cccc2Cl)c1=O [CBK103580] | 92.2 |
| C=CCN1CCC(C(=O)NC(=O)NCC2COc3ccccc3O2)CC1 (centres unmarked) [CBK051099] | 84.2 |
| Cc1ccc(-c2ncc3c(=O)[nH]c(=O)n(C)c3n2)cc1 [CBK288553] | 89.6 |
| CC(C)C(=O)N1CCC[C@@H]2NC(=O)c3ccccc3OCC/C=C/C[C@@H]21 [CBK292064] | 101 |
| CC1(C)Cc2c(cnn2-c2ccccc2)C(NS(=O)(=O)C2CC2)C1 (centres unmarked) [CBK307351] | 102 |
| CC1CCN(CC(=O)Nc2sc3c(c2C(=O)NCc2ccccc2)CCCC3)CC1 [CBK268387] | 107 |
| O=C(O)c1cccc(-c2cn3ccnc3c(N3CCOCC3)n2)c1 [CBK038053] | 84 |
| Cc1cc(NS(=O)(=O)c2cc(OCC(N)=O)c(C)cc2Cl)no1 [CBK266456] | 103 |

| SMILES | viability at 28.5 h, 10 µM [%] |
| --- | --- |
| CCOc1nnc(CN(CCC(N)=O)c2ccc(F)cc2)s1 [CBK305536] | 110 |
| Cn1nc(-c2ccc(S(=O)(=O)NCCN3CCNC3=O)s2)cc1C(F)(F)F [CBK062610] | 91.6 |
| Cc1cc2c(cc1Br)NC(=O)/C2=N\O [CBK288453] | 56 |
| O=C(c1ccc(F)cc1)N1C[C@@H](c2ccsc2)[C@@H]2CN(Cc3cccc(F)c3)CC[C@@H]21 [CBK285640] | 91.2 |
| CC(C)N(CCOc1nccnc1-c1ccc(OC(F)(F)F)cc1)C(C)C [CBK106848] | 89.3 |
| O=C(O)C(Cc1ccccc1)N1C(=O)c2cccc([N+](=O)[O-])c2C1=O (centres unmarked) [CBK115372] | 95.8 |
| Fc1ccc(-c2cccc(Nc3ccc(Oc4ccccc4)cc3)n2)cc1Cl [CBK037699] | 102 |
| Cc1ccc(C2=CCN(CC(=O)N3CCc4ccccc43)CC2)o1 [CBK283918] | 88.1 |
| c1ccc(CCNc2nc(-c3ccc(N4CCOCC4)cc3)cn3ccnc23)nc1 [CBK037271] | 96.4 |
| Cc1cc(C)nc(-n2ncc3c2CC(c2cccs2)CC3=O)n1 (centres unmarked) [CBK269371] | 107 |
| CC(C)c1n[nH]c(C2CN(Cc3nc4c(F)cccc4[nH]3)CCO2)n1 (centres unmarked) [CBK305225] | 98.8 |
| O=[N+]([O-])c1ccc(Cl)cc1N/N=C1\CN2CCC1CC2 [CBK217272] | 108 |
| COc1ccc(S(=O)(=O)n2ccn(-c3ccc(Oc4ccccc4)cc3)c2=O)cc1OC [CBK106649] | 86.9 |
| O=C(Nc1nc2ccccc2s1)c1cccnc1Cl [CBK071983] | 108 |
| C[C@@H](Cn1nc2c(cc1=O)CCCC2)NC(=O)Cc1ccc(F)cc1 [CBK284526] | 100 |
| c1ccc(OCCN2CCCN(c3nccc(OCC4COc5ccccc5O4)n3)CC2)cc1 (centres unmarked) [CBK083980] | 94 |
| Cn1cnnc1SCC(=O)N1CCc2ccccc21 [CBK287576] | 82.7 |
| CCOc1ccc(CN2CCN(C(=O)c3cccc(C#N)c3)CC2)cc1 [CBK304527] | 93.5 |
| O=C(C1CCCO1)N1CCCCCC1c1cc(-c2cccs2)on1 (centres unmarked) [CBK284340] | 97.6 |
| O=C(O)c1cccc(Nc2nc3ccccc3nc2NS(=O)(=O)c2ccc(Br)cc2)c1 [CBK296113] | 111 |
| O=S(=O)(c1ccc(C(F)(F)F)cc1Cl)N1CCN(Cc2c[nH]nc2-c2cccs2)CC1 [CBK062864] | 108 |
| O=[N+]([O-])c1cnc(NS(=O)(=O)c2ccc(Oc3ccccc3)cc2)s1 [CBK067535] | 102 |
| CN1CCC2(CC1)CC(=O)c1cc(-c3ccc(C(=O)N(C)CCC#N)cc3)ccc1O2 [CBK156518] | 89 |

| SMILES | viability at 28.5 h, 10 µM [%] |
| --- | --- |
| O=C(O)C1CC1(C(=O)O)C(=O)O (centres unmarked) [CBK261009] | 103 |
| O=C(Oc1cccc2cccnc12)c1cc(S(=O)(=O)N2CCOCC2)ccc1Cl [CBK263210] | 91.3 |
| O=C(c1cc(F)c(F)cc1F)N1CCC2(CCN(Cc3cccc(C(F)(F)F)c3)C2)C1 (centres unmarked) [CBK132130] | 102 |
| NC(=O)C1(Cc2cccc(-c3cccs3)c2)CCN(C(=O)Cc2cccc(F)c2)CC1 [CBK285783] | 98 |
| Cc1cc(NC(=O)CSc2nnc(-c3ccccc3)o2)no1 [CBK287389] | 96.2 |
| CC(C)(C)CC(C)(C)Nc1nc(N)nc(N)n1 [CBK022832] | 101 |
| O=C(Nc1ncnc2nc[nH]c12)NC1CCCCC1 [CBK022860] | 97.7 |
| Cc1cc(CN2CCN(C(=O)NCCc3ccccn3)CC2)on1 [CBK305637] | 80 |
| COc1ccc(CCNS(=O)(=O)c2ccc(C3CNC(=O)C3)cc2)cc1OC (centres unmarked) [CBK268352] | 112 |
| CN1CCC(=NNC(=O)CCSc2ccc(Cl)cc2)CC1 [CBK020372] | 99.6 |
| CC(C)CC(=O)N1CCC(n2c(=O)oc3ccc(Cl)cc32)CC1 [CBK285477] | 105 |
| Cc1n[nH]c(-c2ccc(OCc3cnn(-c4ccccc4)c3)cc2O)c1Oc1ccc(F)cc1 [CBK264461] | 116 |
| COC(=O)CNC(=O)c1ccc(S(=O)(=O)N2CCCC2)cc1 [CBK264880] | 88.4 |
| Cc1cnn(C2CN(CC(=O)N3CCc4sccc4C3)C2)c1 [CBK305097] | 86.8 |
| CC(=O)N1CCN(c2nc3ccccc3s2)CC1 [CBK287362] | 95 |
| CCCn1c(SCC(=O)N2CCN(S(=O)(=O)c3ccc(C)cc3C)CC2)n[nH]c1=O [CBK295590] | 104 |
| COc1cncc(-c2cc(N3CCC(N4CCCCC4)CC3)ncn2)c1 [CBK090964] | 90.3 |
| O=C(c1ccccc1)n1c(=S)nc2n(c1=S)CCN2 [CBK021794] | 84.3 |
| COc1ccc(S(=O)(=O)Nc2ccc(C(=O)O)cc2)cc1OC [CBK034048] | 96.2 |
| Cc1ccc(C(=O)NCCN2CCC(O)(c3ccc(F)cc3)CC2)o1 [CBK283167] | 86.3 |
| CCOC(=O)CN(Cc1ccccc1)Cc1ccc(OC)cc1 [CBK126460] | 103 |
| O=C(c1ccno1)N1CCC(Cc2ccccc2)CC1 [CBK200185] | 112 |
| Cc1nc(C2CCCN(C(=O)c3ccncc3)C2)c2sccn12 (centres unmarked) [CBK285199] | 90.8 |

| SMILES | viability at 28.5 h, 10 µM [%] |
| --- | --- |
| COC(=O)CCc1ccc(S(=O)(=O)N2CCCN(Cc3ccc(Cl)c(C(F)(F)F)c3)CC2)cc1 [CBK062995] | 102 |
| COc1ccc(-c2cc(C(=O)N[C@H]3CCN(Cc4ccccc4)C3)cnc2-c2ccccc2)cn1 [CBK037605] | 93.9 |
| COc1cc(Nc2cc(-c3cccc(N)c3)nc3ccnn23)cc(OC)c1OC [CBK037236] | 105 |
| Cc1ccc(O)c(Nc2ncnc3ccc(Br)cc23)c1 [CBK269028C] | 98.3 |
| c1ccc(CN2CCN(c3cncc(-c4cccs4)n3)CC2)nc1 [CBK065734] | 98.1 |
| c1cnn(CC2CCCN2c2ncnc3sccc23)c1 (centres unmarked) [CBK304968] | 92.5 |
| Cc1nn(C)cc1-c1cc(C(=O)Nc2ccccc2C2CC2)on1 [CBK281412] | 95.9 |
| COc1ccc(C(=O)N2CCC3(CCCN(C(=O)CCSC)C3)C2)cc1OC (centres unmarked) [CBK131661] | 111 |
| O=S(=O)(CCSc1nc2ccccc2s1)c1nc2ccccc2s1 [CBK026908] | 92.4 |
| Cc1cccc(-c2n[nH]c(=S)n2CCC(=O)Nc2ccc(N3CCCC3=O)c(C)c2)c1 [CBK296733] | 89.1 |
| CCN(CC)C(=O)C1CCCN(C(=O)c2ccc3c(c2)COC(C2CCN(C(=O)OC(C)(C)C)CC2)O3)C1 (centres unmarked) [CBK173279] | 100 |
| Cc1cc2c(N3CCCC3)nc(N3CCCC3)nc2n1C [CBK016633C] | 101 |
| CC(C)(O)c1cc(CC2(NCc3ccc(Cl)cc3)COC2)no1 [CBK289254] | 80.1 |
| COc1ccc(S(=O)(=O)NCCNC(=O)c2cc(-c3cccc(S(C)(=O)=O)c3)cnc2NCC2CC2)cc1 [CBK076425] | 94.6 |
| C=CCNC(=O)CCc1nc(-c2cccc(OC)c2)no1 [CBK268981] | 99.2 |
| Cc1ccc(-c2csc(NC(=O)c3ccc(S(=O)(=O)N4CCOCC4)cc3)n2)cc1 [CBK094024] | 93.4 |
| COc1cc(NC(=O)c2ccco2)c(C(=O)O)cc1OC [CBK076926] | 91.6 |
| O=C(c1coc2ccc(O)c(CN3CCCCC3)c12)C1CC1 [CBK263206C] | 93.7 |
| Cc1noc(C)c1CC(=O)NC(C)c1nc2ccccc2s1 (centres unmarked) [CBK281467] | 107 |
| Cc1cccnc1C(Cc1ccsc1)NC(=O)CCc1ccno1 (centres unmarked) [CBK284804] | 86.7 |
